These results are taken from US7230002B2, “Dipeptidyl peptidase IV inhibitors; processes for their preparation and compositions thereof” (Glenmark Pharmaceuticals Ltd., priority 2004, dated 2007).

Counter-ions that a name gives are not always drawn.

T1 sequence (P27487 whole entry): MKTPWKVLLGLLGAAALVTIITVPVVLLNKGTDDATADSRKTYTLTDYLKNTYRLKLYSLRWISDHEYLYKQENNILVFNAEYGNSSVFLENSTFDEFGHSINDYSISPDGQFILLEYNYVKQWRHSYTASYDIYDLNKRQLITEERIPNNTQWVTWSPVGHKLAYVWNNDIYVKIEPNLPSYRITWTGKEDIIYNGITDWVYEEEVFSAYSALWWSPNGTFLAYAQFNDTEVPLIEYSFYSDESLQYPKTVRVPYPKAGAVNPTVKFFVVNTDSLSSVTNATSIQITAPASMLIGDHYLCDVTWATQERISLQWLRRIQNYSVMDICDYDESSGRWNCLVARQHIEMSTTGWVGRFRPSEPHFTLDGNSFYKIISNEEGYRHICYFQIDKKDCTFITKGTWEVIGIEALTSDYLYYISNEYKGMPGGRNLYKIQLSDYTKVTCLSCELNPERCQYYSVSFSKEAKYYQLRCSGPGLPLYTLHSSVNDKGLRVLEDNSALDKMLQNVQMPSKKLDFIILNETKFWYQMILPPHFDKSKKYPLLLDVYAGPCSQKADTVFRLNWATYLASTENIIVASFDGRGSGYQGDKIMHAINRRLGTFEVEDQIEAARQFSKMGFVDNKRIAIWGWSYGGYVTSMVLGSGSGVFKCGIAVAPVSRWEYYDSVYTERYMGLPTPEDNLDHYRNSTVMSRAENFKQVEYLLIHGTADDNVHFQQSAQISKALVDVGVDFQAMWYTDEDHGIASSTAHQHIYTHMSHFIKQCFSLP

The first experiment concerns the target T1, human recombinant Dipeptidyl peptidase IV enzyme (Homo sapiens, UniProt P27487).
T1 construct: purchased R & D Systems
The experiment can be described thus: In-vitro DPP-IV assay (cleavage of Gly-Pro-AMC). Type of experiment: biochemical. The settings on record: at 300 nM, n = 3, read-out: DPP-IV inhibition, percent inhibition at 300 nM. On the procedure:
Protocol for In-Vitro DPP-IV Assay
DPPIV activity was determined by the cleavage rate of 7-amino-4-methyl coumarin (AMC) from synthetic substrate Glycyl-Prolyl-AMC. In brief, the assay was conducted by adding 10 ng of human recombinant Dipeptidyl peptidase IV enzyme (DPPIV, available commercially from R & D Systems) in 50 μl of the assay buffer (25 mM Tris, pH 7.4, 140 mM NaCl, 10 mM KCl, 1% BSA) to 96 well black flat bottom microtiter plates. The reaction was initiated by adding 50 μl of 100 μM substrate Gly-Pro-AMC. The incubation was carried out in the kinetic mode at 30° C. for 30 minutes. Fluorescence was measured using Fluorostar at excitation filter of 380 nm and emission filter of 460 nm). Test compounds and solvent controls were added as 1 μl additions. A standard curve of free amino methyl coumarin (AMC) was generated using 0–100 μM AMC in the assay buffer. The curve generated, which was linear was used for the interpolation of catalytic activity.
Test compounds dissolved in DMSO at 5–6 concentrations were tested in duplicate along with the solvent control and blank samples. Percent inhibition was calculated at each concentration with respect to the solvent control sample (no test compound added). IC50 values were calculated from 3 experiments using the prism software.
For the compound `N#Cc1ccc(NCC2CCC(NCC(=O)N3CCSC3)C2)nc1` (centres unmarked) [Example-2], the inhibition at 0.3 µM stood at 17%.

Turning to `N#Cc1ccc(NCC2CCC(NCC(=O)N3CCCC3)C2)nc1` (racemic) [Example-1, cis-(±)-6-(3-[2-(1-Pyrrolidinyl)-2-oxoethylamino]cyclopentylmethylamino)nicotino-nitrile], the inhibition at 0.3 µM was 6%.

The experiment is the same for the next values; noted with them: n = 3, substrate Gly-Pro-AMC, 30° C., 30 minutes, read-out: DPP-IV inhibition IC50.
In the case of `N#Cc1ccc(NC[C@H]2CC[C@@H](NCC(=O)N3CCC[C@H]3C#N)C2)nc1` [Example-8, 6-((1S,3R)-3-{2-[(2S)-2-Cyanopyrrolidin-1-yl]-2-oxoethylamino}cyclopentylmethyl-amino)nicotinonitrile], the IC50 was 10.6 nM.

For the compound `N#Cc1ccc(SCC2CCC(NCC(=O)N3CCC[C@H]3C#N)C2)nc1` (mixture of isomers) [Example-39, 6-((1SR,3RS)-3-{2-[(2S)-2-Cyanopyrrolidin-1-yl]-2-oxoethylamino}cyclopentyl-methylsulfanyl)nictinonitrile maleate], the IC50 was 11.1 nM.

With `N#Cc1ccc(NC[C@@H]2CC[C@H](NCC(=O)N3CCC[C@H]3C#N)C2)nc1` [Example-11, 6-((1R,3S)-3-{2-[(2S)-2-Cyanopyrrolidin-1-yl]-2-oxoethylamino}cyclopentylmethyl-amino)nicotinonitrile dihydrochloride], the 50% inhibitory concentration (IC50) is 13.9 nM.

For `N#Cc1ccc(NCC2CCC(NCC(=O)N3CCC[C@H]3C#N)C2)nc1` (mixture of isomers) [Example-3, 6-((1SR,3RS)-3-{2-[(2S)-2-Cyanopyrrolidin-1-yl]-2-oxoethylamino}cyclopentyl-methylamino)nicotinonitrile], the IC50 came to 6.29 nM.

As to `N#C[C@@H]1CCCN1C(=O)CN[C@@H]1CC[C@H](COc2ccc([N+](=O)[O-])cc2)C1` [Example-44, (2S)-1-{2-[(3S,1R)-3-(4-Nitrophenoxymethyl)cyclopentylamino]acetyl}-pyrrolidine-2-carbonitrile], the IC50 stood at 25.8 nM.

With `N#Cc1ccc(NCC2CCC(NCC(=O)N3C[C@@H](F)C[C@H]3C#N)C2)nc1` (mixture of isomers) [Example-14, 6-((1SR,3RS)-3-{2-[(2S,4S)-2-Cyano-4-fluoropyrrolidin-1-yl]-2-oxoethylamino}-cyclopentylmethylamino)nicotinonitrile], the concentration for half-maximal inhibition (IC50) worked out at 3.58 nM.

Consider `N#Cc1ccc(S(=O)(=O)CC2CCC(NCC(=O)N3CCC[C@H]3C#N)C2)nc1` (mixture of isomers) [Example-40, 6-((1SR,3RS)-3-{2-[(2S)-2-Cyanopyrrolidin-1-yl)-2-oxoethylamino}cyclopentyl-methylsulfonyl)nicotinonitrile], for which the IC50 stood at 78.7 nM.

As to `N#Cc1ccc(OC[C@H]2CC[C@@H](NCC(=O)N3C[C@@H](F)C[C@H]3C#N)C2)cc1F` [Example-50, (2S,4S)-1-{2-[(3S,1R)-3-(4-Cyano-3-fluorophenoxymethyl)cyclopentylamino]acetyl}-4-fluoro-pyrrolidine-2-carbonitrile], the 50% inhibitory concentration (IC50) stood at 2.56 nM.

Take `N#Cc1ccc(OC[C@H]2CC[C@@H](NCC(=O)N3CCC[C@H]3C#N)C2)cc1` [Example-47, (2S)-1-{2-[(3S,1R)-3-(4-Cyanophenoxymethyl)cyclopentylamino]acetyl}-pyrrolidine-2-carbonitrile]: the IC50 was 13.8 nM.

Consider `N#C[C@@H]1CCCN1C(=O)CN[C@@H]1CC[C@H](CSc2ncccn2)C1` [Example-41, (2S)-1-{2-[(3S,1R)-3-(2-Pyrimidinylsulfanylmethyl)cyclopentylamino]acetyl}-pyrrol-idine-2-carbonitrile], for which the IC50 turned out to be 15.8 nM.

`N#Cc1ccc(SCC2CCC(NCC(=O)N3CCC[C@H]3C#N)C2)nc1` (mixture of isomers) [Example-38, 6-((1SR,3RS)-3-{2-[(2S)-2-Cyanopyrrolidin-1-yl]-2-oxoethylamino}cyclopentyl-methylsulfanyl)nicotinonitrile]: the IC50 came out at 9.42 nM.

As to `N#C[C@@H]1CCCN1C(=O)CNC1CCC(CNc2ccc([N+](=O)[O-])cc2F)C1` (mixture of isomers) [Example-24, (2S)-1-{2-[(3SR,1RS)-3-(2-Fluoro-4-nitroanilinomethyl)cyclopentylamino]acetyl}-pyrrolidine-2-carbonitrile], the IC50 worked out at 6.29 nM.

As to `N#C[C@@H]1CCCN1C(=O)CN[C@@H]1CC[C@H](CS(=O)(=O)c2ccccc2)C1` [Example-31, (2S)-1-{2-[(3S,1R)-3-Phenylsulfonylmethylcyclopentylamino]acetytl}-pyrrolidine-2-carbonitrile], the IC50 turned out to be 91.8 nM.

`N#Cc1ccc(NC[C@H]2CC[C@@H](NCC(=O)N3C[C@@H](F)C[C@H]3C#N)C2)nc1` [Example-15, 6-((1S,3R)-3-{2-[(2S,4S)-2-Cyano-4-fluoropyrrolidin-1-yl]-2-oxoethylamino}cyclo-pentylmethylamino)nicotinonitrile]: the IC50 was determined as 3.17 nM.

`N#C[C@@H]1CCCN1C(=O)CN[C@H]1CC[C@@H](CSc2ccccc2)C1` [Example-32, (2S)-1-{2-[(1S,3R)-3-Phenylsulfanylmethylcycopentylamino]acetyl}-pyrrolidine-2-carbonitrile]: the concentration for half-maximal inhibition (IC50) was determined as 37 nM.

Consider `N#Cc1ccc(NCC2CCC(NCC(=O)N3CCC[C@H]3C#N)C2)nc1` (mixture of isomers) [Example-5, 6-((1SR,3RS)-3-{2-[(2S)-2-Cyanopyrrolidin-1-yl]-2-oxoethylamino}cyclopentyl-methylamino)nicotinonitrile maleate], for which the concentration for half-maximal inhibition (IC50) came to 10.3 nM.

As to `N#C[C@@H]1CCCN1C(=O)CN[C@H]1CC[C@@H](CS(=O)(=O)c2ccccn2)C1` [Example-37, (2S)-1-{2-[(1S,3R)-3-(2-Pyridylsulfonylmethyl)cyclopentylamino]acetyl}-pyrrolidine-2-carbonitrile], the IC50 turned out to be 66 nM.

With `N#Cc1ccc(OC[C@H]2CC[C@@H](NCC(=O)N3CCC[C@H]3C#N)C2)cc1` [Example-48, (2S)-1-{2-[(3S,1R)-3-(4-Cyanophenoxymethyl)cyclopentylamino]acetyl}-pyrrolidine-2-carbonitrile hydrochloride], the IC50 is 13.5 nM.

Take `N#C[C@@H]1CCCN1C(=O)CNC1CCC(CS(=O)(=O)c2ccccc2)C1` (mixture of isomers) [Example-29]: the IC50 amounted to 10 nM.

For `N#C[C@@H]1CCCN1C(=O)CN[C@H]1CC[C@@H](CNc2ncccn2)C1` [Example-21], the 50% inhibitory concentration (IC50) was found to be 6.74 nM.

For the compound `N#C[C@@H]1CCCN1C(=O)CNC1CCC(CNc2ccc([N+](=O)[O-])c(Cl)c2)C1` (mixture of isomers) [Example-23, (2S)-1-{2-[(3SR,1RS)-3-(3-Chloro-4-nitroanilinomethyl)cyclopentylamino]acetyl}-pyrrolidine-2-carbonitrile], the IC50 was 14.6 nM.

Regarding `N#Cc1ccc(NC[C@@H]2CC[C@@H](NCC(=O)N3CSC[C@H]3C#N)C2)nc1` (racemic) [Example-17, (4S)-3-{2-(1RS,3RS)-3-[(5-Cyano-2-pyridylaminomethyl)cyclopentylamino]acetyl}-1,3-thiazolane-4-carbonitrile dihydrochloride], the half-inhibitory concentration (IC50) is 2.93 nM.

With `N#C[C@@H]1CCCN1C(=O)CN[C@@H]1CC[C@H](CNc2nnnn2-c2ccccc2)C1` [Example-22, (2S)-1-{2-[(3S,1R)-3-(1-Phenyl-1H-1,2,3,4-tetraazol-5-ylaminomethyl)cyclopentyl-amino]acetyl}-pyrrolidine-2-carbonitrile], the IC50 was found to be 10.4 nM.

With `N#C[C@@H]1CCCN1C(=O)CNC1CCC(CSc2ccccc2)C1` (mixture of isomers) [Example-28, (2S)-1-{2-[(3SR,1RS)-3-Phenylsulfanylmethylcyclopentylamino]acetyl}-pyrrolidine-2-carbonitrile], the IC50 stood at 22.3 nM.

For `N#C[C@@H]1CCCN1C(=O)CNC1CCC(CNc2ncccn2)C1` (mixture of isomers) [Example-19, (2S)-1-{2-[(3SR,1RS)-3-(2-Pyrimidinylaminomethyl)cyclopentylamino)acetyl}-pyrrolidine-2-carbonitrile dihydrochloride], the IC50 was 20 nM.

In the case of `N#C[C@@H]1CCCN1C(=O)CN[C@@H]1CC[C@H](CNc2ccc([N+](=O)[O-])cc2F)C1` [Example-25, (2S)-1-{2-[(1R,3S)-3-(2-Fluoro-4-nitroanilinmethyl)cyclopentylamino]acetyl}-pyrrolidine-2-carbonitrile], the half-maximal inhibitory concentration (IC50) is 8.59 nM.

Regarding `N#C[C@@H]1CCCN1C(=O)CN[C@H]1C=C[C@@H](CSc2ccccn2)C1` [Example-35, (2S)-1-{2-[(4S,1R)-4-(2-Pyridylsulfanylmethyl)cyclopent-2-enealino]acetyl}-pyrrolidine-2-carbonitrile], the half-inhibitory concentration (IC50) worked out at 70.9 nM.

Turning to `N#C[C@@H]1CCCN1C(=O)CN[C@@H]1CC[C@H](CSc2ccccc2)C1` [Example-30, (2S)-1-{2-[(3S,1R)-3-Phenylsulfanylmethylcycopentylamino]acetytl}-pyrrolidine-2-carbonitrile], the IC50 turned out to be 63.4 nM.

As to `N#Cc1ccc(OC[C@H]2CC[C@@H](NCC(=O)N3CCC[C@H]3C#N)C2)cc1F` [Example-49, (2S)-1-{2-[(3S,1R)-3-(4-Cyano-3-fluorophenoxymethyl)cyclopentylamino]acetyl}-pyrrolidine-2-carbonitrile], the half-maximal inhibitory concentration (IC50) was 23.5 nM.

Consider `N#C[C@@H]1CCCN1C(=O)CN[C@H]1CC[C@@H](CSc2ccccn2)C1` [Example-36, (2S)-1-{2-[(1S,3R)-3-(2-Pyridylsulfanylmethyl)cyclopentylamino]acetyl}-pyrrolidine-2-carbonitrile], for which the IC50 worked out at 10.6 nM.
